Source: patent publication US12077503B2, “Substituted cyclic amides and their use as herbicides” (FMC CORPORATION, priority 2015, dated 2024)

Assays:
Format in all cases: in vivo
[1] = system: Kochia (Kochia scoparia); experiment: Test A preemergence; details: Bassia scoparia, pre-emergence, 240 h, 0 to 100 scale where 0 is no effect and 100 is complete control, read-out: Kochia plant response rating
Summary of the method: (§1)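 Each rating is a visual injury score from 0 to 100 given about 10 d after treatment, judged against untreated controls kept alongside in the greenhouse. In loam soil–sand blend, seeds got a preemergence directed soil spray, while postemergence plants were 2 to 10 cm tall at spraying.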

[2] = system: barnyardgrass (Echinochloa crus-galli); experiment: Test A preemergence; details: Echinochloa crus-galli, pre-emergence, 240 h, 0 to 100 scale where 0 is no effect and 100 is complete control, read-out: Barnyardgrass plant response rating
Summary of the method: as §1

[3] = system: giant foxtail (Setaria faberii); experiment: Test A preemergence; details: Setaria faberi, pre-emergence, 240 h, 0 to 100 scale where 0 is no effect and 100 is complete control, read-out: Foxtail, Giant plant response rating
Summary of the method: as §1

[4] = system: pigweed (Amaranthus retroflexus); experiment: Test A preemergence; details: Amaranthus retroflexus, pre-emergence, 240 h, 0 to 100 scale where 0 is no effect and 100 is complete control, read-out: Pigweed plant response rating
[5] = system: ragweed (common ragweed, Ambrosia elatior); experiment: Test A preemergence; details: Ambrosia artemisiifolia, pre-emergence, 240 h, 0 to 100 scale where 0 is no effect and 100 is complete control, read-out: Ragweed plant response rating
Summary of the method: as §1

[6] = system: ryegrass, Italian (Italian ryegrass, Lolium multiflorum); experiment: Test A preemergence; details: Lolium multiflorum, pre-emergence, 240 h, 0 to 100 scale where 0 is no effect and 100 is complete control, read-out: Ryegrass, Italian plant response rating
Summary of the method: as §1

[7] = system: Galium (catchweed bedstraw, Galium aparine); experiment: Test A postemergence; details: Galium, post-emergence, 240 h, read-out: Galium plant response rating (0 to 100 scale)
Summary of the method: as §1

[8] = system: Kochia (Kochia scoparia); experiment: Test A postemergence; details: Bassia scoparia, post-emergence, 240 h, read-out: Kochia plant response rating (0 to 100 scale)
Summary of the method: as §1

[9] = system: barnyardgrass (Echinochloa crus-galli); experiment: Test A postemergence; details: Echinochloa crus-galli, post-emergence, 240 h, read-out: Barnyardgrass plant response rating (0 to 100 scale)
Summary of the method: as §1

[10] = system: blackgrass (Alopecurus myosuroides); experiment: Test A postemergence; details: Alopecurus myosuroides, post-emergence, 240 h, read-out: Blackgrass plant response rating (0 to 100 scale)
Summary of the method: as §1

[11] = system: corn (Zea mays); experiment: Test A postemergence; details: Zea mays, post-emergence, 240 h, read-out: Corn plant response rating (0 to 100 scale)
Summary of the method: as §1

[12] = system: giant foxtail (Setaria faberii); experiment: Test A postemergence; details: Setaria faberi, post-emergence, 240 h, read-out: Foxtail, Giant plant response rating (0 to 100 scale)
Summary of the method: as §1

[13] = system: pigweed (Amaranthus retroflexus); experiment: Test A postemergence; details: Amaranthus retroflexus, post-emergence, 240 h, read-out: Pigweed plant response rating (0 to 100 scale)
Summary of the method: as §1

[14] = system: ragweed (common ragweed, Ambrosia elatior); experiment: Test A postemergence; details: Ambrosia artemisiifolia, post-emergence, 240 h, read-out: Ragweed plant response rating (0 to 100 scale)
Summary of the method: as §1

[15] = system: ryegrass, Italian (Italian ryegrass, Lolium multiflorum); experiment: Test A postemergence; details: Lolium multiflorum, post-emergence, 240 h, read-out: Ryegrass, Italian plant response rating (0 to 100 scale)
Summary of the method: as §1

[16] = system: wheat (Triticum aestivum); experiment: Test A postemergence; details: Triticum aestivum, post-emergence, 240 h, Postemergence, 31 g ai/ha; 0 is no effect, 100 is complete control; read-out: Wheat plant response rating (0 to 100 scale)
Summary of the method: as §1

[17] = system: barnyardgrass (Echinochloa crus-galli); experiment: Test B flooded paddy test; details: Echinochloa crus-galli, 250 g ai/ha, Flood; 0 to 100 scale where 0 is no effect and 100 is complete control; read-out: Barnyardgrass plant response rating
Summary of the method: (§2)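 Response scored visually against untreated controls, 0 = no effect and 100 = complete control, 13–15 d after treatment in the greenhouse. Compounds added to paddy water held 3 cm above soil surface. Treatment given at 2-leaf stage.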

[18] = system: ducksalad (Heteranthera limosa); experiment: Test B flooded paddy test; details: Heteranthera limosa, 250 g ai/ha, Flood; 0 to 100 scale where 0 is no effect and 100 is complete control; read-out: Ducksalad plant response rating
Summary of the method: as §2

[19] = system: rice (Oryra sativa); experiment: Test B flooded paddy test; details: Oryza sativa, 250 g ai/ha, Flood; 0 to 100 scale where 0 is no effect and 100 is complete control; read-out: Rice plant response rating
Summary of the method: as §2

[20] = system: sedge, umbrella (small-flower umbrella sedge, Cyperus difformis); experiment: Test B flooded paddy test; details: Cyperus difformis, 250 g ai/ha, Flood; 0 to 100 scale where 0 is no effect and 100 is complete control; read-out: Sedge, Umbrella plant response rating
Summary of the method: as §2

[21] = 125 g ai/ha, preemergence, visual injury rating, approximately 10 d
[22] = 125 g ai/ha, postemergence, visual injury vs untreated controls after approx. 10 d, 0 = no effect, 100 = complete control
[23] = Postemergence, 31 g ai/ha, 0 is no effect, 100 is complete control

Cn1ccc2ccc([C@H]3CNC(=O)[C@@H]3C(=O)Nc3ccccc3F)cc21 [Compound 1264]
0%: pest or weed control at 31 g/ha ([1]; 31 g ai/ha, Preemergence) | pest or weed control at 125 g/ha [1, 21] | pest or weed control at 31 g/ha ([2]; 31 g ai/ha, Preemergence) | pest or weed control at 125 g/ha [2, 21] | pest or weed control at 31 g/ha ([3]; 31 g ai/ha, Preemergence) | pest or weed control at 125 g/ha [3, 21] | pest or weed control at 31 g/ha ([4]; 31 g ai/ha, Preemergence) | pest or weed control at 125 g/ha [4, 21] | pest or weed control at 31 g/ha ([5]; 31 g ai/ha, Preemergence) | pest or weed control at 125 g/ha [5, 21] | pest or weed control at 31 g/ha ([6]; 31 g ai/ha, Preemergence) | pest or weed control at 125 g/ha [6, 21] | pest or weed control at 125 g/ha [7, 22] | pest or weed control at 31 g/ha [7, 23] | pest or weed control at 125 g/ha [8, 22] | pest or weed control at 31 g/ha [8, 23] | pest or weed control at 125 g/ha [9, 22] | pest or weed control at 31 g/ha [9, 23] | pest or weed control at 125 g/ha [10, 22] | pest or weed control at 31 g/ha [10, 23] | plant injury at 125 g/ha [11, 22] | plant injury at 31 g/ha [11, 23] | pest or weed control at 125 g/ha [12, 22] | pest or weed control at 31 g/ha [12, 23] | pest or weed control at 125 g/ha [13, 22] | pest or weed control at 31 g/ha [13, 23] | pest or weed control at 125 g/ha [14, 22] | pest or weed control at 31 g/ha [14, 23] | pest or weed control at 125 g/ha [15, 22] | pest or weed control at 31 g/ha [15, 23] | plant injury at 31 g/ha [16] | pest or weed control at 250 g/ha [17] | pest or weed control at 250 g/ha [18] | pest or weed control at 250 g/ha [19] | pest or weed control at 250 g/ha [20]
